For 26 compounds, IC50 results are on record in patent publication US20100080770A1, “Hepatitis C Virus Inhibitors” (priority 2008, published 2010).

T1 sequence (P27958 1027-1711 C1454S/C1711G, one chain of several): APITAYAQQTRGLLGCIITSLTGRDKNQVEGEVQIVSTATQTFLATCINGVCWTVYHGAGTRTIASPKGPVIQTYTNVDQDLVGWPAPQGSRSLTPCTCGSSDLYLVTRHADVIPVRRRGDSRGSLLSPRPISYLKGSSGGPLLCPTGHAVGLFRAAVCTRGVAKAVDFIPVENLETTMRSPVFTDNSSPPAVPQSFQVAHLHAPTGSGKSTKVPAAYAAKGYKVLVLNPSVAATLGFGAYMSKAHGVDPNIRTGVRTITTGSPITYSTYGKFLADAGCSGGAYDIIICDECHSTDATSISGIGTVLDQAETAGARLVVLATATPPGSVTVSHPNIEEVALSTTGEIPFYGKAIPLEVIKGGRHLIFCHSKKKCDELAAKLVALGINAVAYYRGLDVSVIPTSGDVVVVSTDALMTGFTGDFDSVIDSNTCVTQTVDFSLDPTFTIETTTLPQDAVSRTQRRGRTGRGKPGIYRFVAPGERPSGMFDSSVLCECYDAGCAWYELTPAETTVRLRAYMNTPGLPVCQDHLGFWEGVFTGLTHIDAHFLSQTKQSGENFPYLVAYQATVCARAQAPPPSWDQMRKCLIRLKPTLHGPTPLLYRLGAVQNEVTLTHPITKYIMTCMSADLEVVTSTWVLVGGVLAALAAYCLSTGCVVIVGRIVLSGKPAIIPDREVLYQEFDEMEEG

The first assay addresses T1, HCV NS3/4A protease complex (Hepatitis C virus genotype 1a, UniProt P27958, C1454S/C1711G).
T1 construct: recombinant HCV NS3/4A protease complex (amino acids 1027 to 1711); inferred from the pET21b vector and Ni-NTA purification; made in house; host or cells: Escherichia coli BL21 (DE3)
The assay is described as follows: FRET peptide assay to monitor HCV NS3/4A proteolytic activity.
Conditions: not given
The format is biochemical. The source says: HCV NS3 protease complexes, derived from the BMS strain, H77 strain or J4L6S strain, were generated, as described below. These purified recombinant proteins were generated for use in a homogeneous assay (see below) to provide an indication of how effective compounds of the present disclosure would be in inhibiting HCV NS3 proteolytic activity.
The H77 and J4L6S strains were used for production of recombinant NS3/4A protease complexes. DNA encoding the recombinant HCV NS3/4A protease complex (amino acids 1027 to 1711) for these strains was manipulated as described by P. Gallinari et al. (see Gallinari P, Paolini C, Brennan D, Nardi C, Steinkuhler C, De Francesco R. Biochemistry. 38(17):5620-32, (1999)). Briefly, a three-lysine solubilizing tail was added at the 3′-end of the NS4A coding region. The cysteine in the P1 position of the NS4A-NS4B cleavage site (amino acid 1711) was changed to a glycine to avoid the proteolytic cleavage of the lysine tag. Furthermore, a cysteine to serine mutation was introduced by PCR at amino acid position 1454 to prevent the autolytic cleavage in the NS3 helicase domain. The variant DNA fragment was cloned in the pET21b bacterial expression vector (Novagen) and the NS3/4A complex was expressed in Escherichia coli strain BL21 (DE3) (Invitrogen) following the protocol described by P. Gallinari et al. (see Gallinari P, Brennan D, Nardi C, Brunetti M, Tomei L, Steinkuhler C, De Francesco R., J Virol. 72(8):6758-69 (1998)) with modifications. Briefly, the NS3/4A protease complex expression was induced with 0.5 millimolar (mM) Isopropyl β-D-1-thiogalactopyranoside (IPTG) for 22 hours (h) at 20° C. A typical fermentation (1 Liter (L)) yielded approximately 10 grams (g) of wet cell paste. The cells were resuspended in lysis buffer (10 mL/g) consisting of 25 mM N-(2-Hydroxyethyl)Piperazine-N′-(2-Ethane Sulfonic acid) (HEPES), pH 7.5, 20% glycerol, 500 mM Sodium Chloride (NaCl), 0.5% Triton X-100, 1 microgram/milliliter (“μg/mL”) lysozyme, 5 mM Magnesium Chloride (MgCl2), 1 μg/ml DnaseI, 5 mM β-Mercaptoethanol (βME), Protease inhibitor-Ethylenediamine Tetraacetic acid (EDTA) free (Roche), homogenized and incubated for 20 minutes (min) at 4° C. The homogenate was sonicated and clarified by ultra-centrifugation at 235000 g for 1 hour (h) at 4° C. Imidazole was added to the supernatant to a final concentration of 15 mM and the pH adjusted to 8.0. The crude protein extract was loaded on a Nickel-Nitrilotriacetic acid (Ni-NTA) column pre-equilibrated with buffer B (25 mM HEPES, pH 8.0, 20% glycerol, 500 mM NaCl, 0.5% Triton X-100, 15 mM imidazole, 5 mM βME). The sample was loaded at a flow rate of 1 ml/min. The column was washed with 15 column volumes of buffer C (same as buffer B except with 0.2% Triton X-100). The protein was eluted with 5 column volumes of buffer D (same as buffer C except with 200 mM Imidazole).
NS3/4A protease complex-containing fractions were pooled and loaded on a desalting column Superdex-S200 pre-equilibrated with buffer D (25mM HEPES, pH 7.5, 20% glycerol, 300 mM NaCl, 0.2% Triton X-100, 10 mM βME). Sample was loaded at a flow rate of 1 mL/min. NS3/4A protease complex-containing fractions were pooled and concentrated to approximately 0.5 mg/ml. The purity of the NS3/4A protease complexes, derived from the BMS, H77 and J4L6S strains, were judged to be greater than 90% by SDS-PAGE and mass spectrometry analyses. The enzyme was stored at −80° C., thawed on ice and diluted prior to use in assay buffer.
The purpose of this in vitro assay was to measure the inhibition of HCV NS3 protease complexes, derived from the BMS strain, H77 strain or J4L6S strain, as described above, by compounds of the present disclosure. This assay provides an indication of how effective compounds of the present disclosure would be in inhibiting HCV NS3 proteolytic activity.
In order to monitor HCV NS3/4A protease activity, an NS3/4A peptide substrate was used. […]
Take `CO[C@@]12C[C@@H](C(=O)N[C@]3(C(=O)NS(=O)(=O)C4CC4)C[C@H]3C3CC3)N(C1)C(=O)[C@H](C(C)(C)C)NC(=O)OCCCCCCc1ccc3ccc2cc3c1` [Example 31]: the IC50 lay in the range of 1 to 10 nM.

The same assay, now with this note: HCV NS3/4A protease complex; strain not stated; class symbols; read-out: IC50.
Consider `COc1cc2ccc3cc2cc1CCCCOC(=O)N[C@@H](C(C)(C)C)C(=O)N1C[C@@]3(OC)C[C@H]1C(=O)N[C@]1(C(=O)NS(=O)(=O)C2CC2)C[C@H]1C1CC1` [Example 2], for which the IC50 lay in the range of 11 to 12 nM.

Take `C=C[C@@H]1C[C@]1(NC(=O)[C@@H]1C[C@]2(OC)CN1C(=O)[C@H](C(C)(C)C)NC(=O)OCCCCc1cc3cc2ccc3cc1OC)C(=O)NS(=O)(=O)C1CC1` [Example 3]: the concentration for half-maximal inhibition (IC50) lay within 1 to 10 nM. On to `C=C[C@@H]1C[C@]1(NC(=O)[C@@H]1C[C@]2(OC)CN1C(=O)[C@H](C(C)(C)C)NC(=O)OCCCCCc1cc3cc2ccc3cc1OC)C(=O)NS(=O)(=O)C1CC1` [Example 5], for which the IC50 was 1 to 10 nM. Regarding `COc1cc2ccc3cc2cc1CCCCCOC(=O)N[C@@H](C(C)(C)C)C(=O)N1C[C@@]3(OC)C[C@H]1C(=O)N[C@]1(C(=O)NS(=O)(=O)C2CC2)C[C@H]1C1CC1` [Example 6], the IC50 fell in the range of 1 to 10 nM.

Consider `C=C[C@@H]1C[C@]1(NC(=O)[C@@H]1C[C@]2(OC)CN1C(=O)[C@H](C(C)(C)C)NC(=O)OCCCCCCCc1cc3cc2ccc3cc1OC)C(=O)NS(=O)(=O)C1CC1` [Example 20], for which the IC50 was in the range of 11 to 12 nM. With `COc1cc2ccc3cc2cc1CCCCCCCOC(=O)N[C@@H](C(C)(C)C)C(=O)N1C[C@@]3(OC)C[C@H]1C(=O)N[C@]1(C(=O)NS(=O)(=O)C2CC2)C[C@H]1C1CC1` [Example 21], the IC50 lay within 21 to 3200 nM. On the same count and under the same terms, then `COc1cc2ccc3cc2cc1CCCCCCCCOC(=O)N[C@@H](C(C)(C)C)C(=O)N1C[C@@]3(OC)C[C@H]1C(=O)N[C@]1(C(=O)NS(=O)(=O)C2CC2)C[C@H]1C1CC1` [Example 22], with 1 to 10 nM; and `C=C[C@@H]1C[C@]1(NC(=O)[C@@H]1C[C@]2(OC)CN1C(=O)[C@H](C(C)(C)C)NC(=O)OCCCCCCCCc1cc3cc2ccc3cc1OC)C(=O)NS(=O)(=O)C1CC1` [Example 23], with 1 to 10 nM; and `C=C[C@@H]1C[C@]1(NC(=O)[C@@H]1C[C@]2(OC)CN1C(=O)[C@H](C(C)(C)C)NC(=O)OCCCCCCc1cc2cc2ccccc12)C(=O)NS(=O)(=O)C1CC1` [Example 24], with 1 to 10 nM. Same read-out and setting: under `COc1cc2ccc3cc2cc1CCCCCCOC(=O)N[C@@H](C(C)(C)C)C(=O)N1C[C@@]3(O)C[C@H]1C(=O)N[C@]1(C(=O)NS(=O)(=O)C2CC2)C[C@H]1C1CC1` [Example 26] stands 1 to 10 nM. In the case of `COc1cc2ccc3cc2cc1CCCC(C)(C)CCOC(=O)N[C@@H](C(C)(C)C)C(=O)N1C[C@@]3(OC(=O)N(C)C)C[C@H]1C(=O)N[C@]1(C(=O)NS(=O)(=O)C2CC2)C[C@H]1C1CC1` [Example 27], the concentration for half-maximal inhibition (IC50) was in the range of 1 to 10 nM.

For `COCO[C@@]12C[C@@H](C(=O)N[C@]3(C(=O)NS(=O)(=O)C4CC4)C[C@H]3C3CC3)N(C1)C(=O)[C@H](C(C)(C)C)NC(=O)OCCC(C)(C)CCCc1cc3cc2ccc3cc1OC` [Example 28], the half-inhibitory concentration (IC50) fell in the range of 1 to 10 nM. Consider `C=C[C@@H]1C[C@]1(NC(=O)[C@@H]1C[C@]2(OC)CN1C(=O)[C@H](C(C)(C)C)NC(=O)OCCCCCCc1cc3cc2ccc3cc1N(C)C)C(=O)NS(=O)(=O)C1CC1` [Example 29], for which the IC50 was in the range of 1 to 10 nM.

On to `CO[C@@]12C[C@@H](C(=O)N[C@]3(C(=O)NS(=O)(=O)C4CC4)C[C@H]3C3CC3)N(C1)C(=O)[C@H](C(C)(C)C)NC(=O)OCCCCCCc1cc3cc2ccc3cc1N(C)C` [Example 30], for which the IC50 lay within 1 to 10 nM. As to `COc1c2cc3cc(ccc3c1Br)[C@]1(OC)C[C@@H](C(=O)N[C@]3(C(=O)NS(=O)(=O)C4CC4)C[C@H]3C3CC3)N(C1)C(=O)[C@H](C(C)(C)C)NC(=O)OCCC(C)(C)CCC2` [Example 33], the 50% inhibitory concentration (IC50) fell in the range of 11 to 12 nM.

Turning to `COc1ccc2ccc3cc2c1CCCCCOC(=O)N[C@@H](C(C)(C)C)C(=O)N1C[C@@]3(OC)C[C@H]1C(=O)N[C@]1(C(=O)NS(=O)(=O)C2CC2)C[C@H]1C1CC1` [Example 36], the IC50 was in the range of 21 to 3200 nM. On to `COc1ccc2ccc3cc2c1CCCCOC(=O)N[C@@H](C(C)(C)C)C(=O)N1C[C@@]3(OC)C[C@H]1C(=O)N[C@]1(C(=O)NS(=O)(=O)C2CC2)C[C@H]1C1CC1` [Example 37], for which the IC50 fell in the range of 21 to 3200 nM. For `COc1cc2ccc3cc2cc1CCCC(C)(C)CCOC(=O)N[C@@H](C(C)C)C(=O)N1C[C@@]3(OC)C[C@H]1C(=O)N[C@]1(C(=O)NS(=O)(=O)C2CC2)C[C@H]1C1CC1` [Example 38], the IC50 was 1 to 10 nM. With `COc1cc2ccc3cc2cc1CCCC(C)(C)CCOC(=O)N[C@@H](C1CCOCC1)C(=O)N1C[C@@]3(OC)C[C@H]1C(=O)N[C@]1(C(=O)NS(=O)(=O)C2CC2)C[C@H]1C1CC1` [Example 39], the IC50 is 1 to 10 nM. With `COc1cc2ccc3cc2cc1CCCC(C)(C)CCNC(=O)N[C@@H](C(C)(C)C)C(=O)N1C[C@@]3(OC)C[C@H]1C(=O)N[C@]1(C(=O)NS(=O)(=O)C2CC2)C[C@H]1C1CC1` [Example 40], the IC50 is 1 to 10 nM. Turning to `COc1cc2ccc3cc2cc1CCCCCCCC(=O)N[C@@H](C(C)(C)C)C(=O)N1C[C@@]3(OC)C[C@H]1C(=O)N[C@]1(C(=O)NS(=O)(=O)C2CC2)C[C@H]1C1CC1` [Example 41], the 50% inhibitory concentration (IC50) is 1 to 10 nM.

Staying with this assay, now noted: HCV NS3/4A protease complex; strain not stated; numeric values; read-out: IC50.
Consider `C=C[C@@H]1C[C@]1(NC(=O)[C@@H]1C[C@]2(OC)CN1C(=O)[C@H](C(C)(C)C)NC(=O)OCCCCCc1cc2cc2ccccc12)C(=O)NS(=O)(=O)C1CC1` [Example 25], for which the IC50 turned out to be 240 nM. As to `COc1c2cc3cc(ccc3c1Cl)[C@]1(OC)C[C@@H](C(=O)N[C@]3(C(=O)NS(=O)(=O)C4CC4)C[C@H]3C3CC3)N(C1)C(=O)[C@H](C(C)(C)C)NC(=O)OCCC(C)(C)CCC2` [Example 32], the IC50 was found to be 25 nM. As for `COc1cc2ccc3cc2cc1CCCC1(CCOC(=O)N[C@@H](C(C)(C)C)C(=O)N2C[C@@]3(OC)C[C@H]2C(=O)N[C@]2(C(=O)NS(=O)(=O)C3CC3)C[C@H]2C2CC2)CC1` [Example 34], the IC50 stood at 1 nM. With `COc1ccc2ccc3cc2c1CCCCCCOC(=O)N[C@@H](C(C)(C)C)C(=O)N1C[C@@]3(OC)C[C@H]1C(=O)N[C@]1(C(=O)NS(=O)(=O)C2CC2)C[C@H]1C1CC1` [Example 35], the IC50 was determined as 413 nM.

For orientation: IC50 means the concentration at which inhibition is half-maximal.
